ChEMBL document CHEMBL3991601, “The target landscape of clinical kinase drugs” (Science, 2017)
Calls of active or inactive are those of the source. For most assays here, no stated cut-off is given here; in the data, actives have a measured Kd and inactives only a lower limit.

How the values were obtained:
[1] = target: cAMP-dependent protein kinase catalytic subunit alpha (Homo sapiens, UniProt P17612)
[2] = target: Tyrosine-protein kinase HCK (Homo sapiens, UniProt P08631)
[3] = target: Serine/threonine-protein kinase 10 (Homo sapiens, UniProt O94804)
Chain of Serine/threonine-protein kinase 10 (O94804 whole entry): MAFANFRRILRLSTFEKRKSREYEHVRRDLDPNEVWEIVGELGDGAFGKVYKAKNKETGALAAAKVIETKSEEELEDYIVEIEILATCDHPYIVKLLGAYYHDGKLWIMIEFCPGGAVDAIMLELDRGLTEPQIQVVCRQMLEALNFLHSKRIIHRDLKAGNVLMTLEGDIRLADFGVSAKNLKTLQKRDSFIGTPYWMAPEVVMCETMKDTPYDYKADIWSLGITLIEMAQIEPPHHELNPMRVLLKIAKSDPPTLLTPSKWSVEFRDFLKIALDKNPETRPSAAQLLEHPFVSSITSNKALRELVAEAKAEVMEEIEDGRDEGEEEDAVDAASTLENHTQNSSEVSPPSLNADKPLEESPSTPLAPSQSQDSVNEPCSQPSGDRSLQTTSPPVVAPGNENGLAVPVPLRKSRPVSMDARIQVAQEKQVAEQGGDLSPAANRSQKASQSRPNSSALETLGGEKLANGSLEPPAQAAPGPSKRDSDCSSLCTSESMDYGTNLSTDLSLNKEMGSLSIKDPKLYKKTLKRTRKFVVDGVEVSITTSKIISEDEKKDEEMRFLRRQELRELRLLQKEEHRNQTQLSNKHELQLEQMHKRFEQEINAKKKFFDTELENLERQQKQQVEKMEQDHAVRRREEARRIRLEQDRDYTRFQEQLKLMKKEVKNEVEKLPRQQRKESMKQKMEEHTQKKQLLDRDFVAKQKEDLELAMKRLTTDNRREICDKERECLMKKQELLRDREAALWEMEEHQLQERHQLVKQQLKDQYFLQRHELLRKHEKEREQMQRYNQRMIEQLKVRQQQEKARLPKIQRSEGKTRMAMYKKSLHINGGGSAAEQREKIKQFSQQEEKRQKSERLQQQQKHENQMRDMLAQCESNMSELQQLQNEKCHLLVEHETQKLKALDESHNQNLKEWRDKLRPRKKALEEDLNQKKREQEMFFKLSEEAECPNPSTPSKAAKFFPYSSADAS

[4] = target: Tyrosine-protein kinase SYK (Homo sapiens, UniProt P43405)
Ephrin type-B receptor 4 = target: T1, Ephrin type-B receptor 4 (Homo sapiens, UniProt P54760)
T1 sequence (P54760 whole entry): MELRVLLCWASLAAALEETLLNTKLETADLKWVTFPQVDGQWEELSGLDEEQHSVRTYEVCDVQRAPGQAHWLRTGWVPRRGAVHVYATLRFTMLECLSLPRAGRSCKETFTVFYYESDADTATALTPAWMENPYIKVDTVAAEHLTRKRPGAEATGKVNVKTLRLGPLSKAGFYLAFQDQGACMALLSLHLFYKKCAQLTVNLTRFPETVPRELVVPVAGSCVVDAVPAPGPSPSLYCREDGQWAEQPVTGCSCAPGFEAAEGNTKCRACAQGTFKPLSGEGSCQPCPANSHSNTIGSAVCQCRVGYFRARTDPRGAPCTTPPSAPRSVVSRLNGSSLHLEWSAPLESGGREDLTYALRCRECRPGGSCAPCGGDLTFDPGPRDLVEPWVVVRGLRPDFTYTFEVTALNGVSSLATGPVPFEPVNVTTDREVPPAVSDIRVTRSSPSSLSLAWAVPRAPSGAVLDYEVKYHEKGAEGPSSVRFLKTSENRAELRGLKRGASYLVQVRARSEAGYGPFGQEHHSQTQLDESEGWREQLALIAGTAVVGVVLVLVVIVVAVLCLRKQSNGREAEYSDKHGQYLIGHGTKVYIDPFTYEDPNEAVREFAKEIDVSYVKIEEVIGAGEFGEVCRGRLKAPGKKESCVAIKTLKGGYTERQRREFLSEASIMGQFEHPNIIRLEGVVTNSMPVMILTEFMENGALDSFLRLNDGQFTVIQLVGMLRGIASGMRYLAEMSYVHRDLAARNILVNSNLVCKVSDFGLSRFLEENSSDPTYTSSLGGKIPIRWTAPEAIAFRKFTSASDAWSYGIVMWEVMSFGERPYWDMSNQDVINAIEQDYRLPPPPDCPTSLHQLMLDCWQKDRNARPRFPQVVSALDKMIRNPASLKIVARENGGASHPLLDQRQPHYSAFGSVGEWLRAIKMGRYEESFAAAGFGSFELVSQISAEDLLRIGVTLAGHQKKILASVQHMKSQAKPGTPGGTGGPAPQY

[5] = target: T2, Phenylalanine--tRNA ligase beta subunit (Homo sapiens, UniProt Q9NSD9)
T2 sequence (Q9NSD9 whole entry): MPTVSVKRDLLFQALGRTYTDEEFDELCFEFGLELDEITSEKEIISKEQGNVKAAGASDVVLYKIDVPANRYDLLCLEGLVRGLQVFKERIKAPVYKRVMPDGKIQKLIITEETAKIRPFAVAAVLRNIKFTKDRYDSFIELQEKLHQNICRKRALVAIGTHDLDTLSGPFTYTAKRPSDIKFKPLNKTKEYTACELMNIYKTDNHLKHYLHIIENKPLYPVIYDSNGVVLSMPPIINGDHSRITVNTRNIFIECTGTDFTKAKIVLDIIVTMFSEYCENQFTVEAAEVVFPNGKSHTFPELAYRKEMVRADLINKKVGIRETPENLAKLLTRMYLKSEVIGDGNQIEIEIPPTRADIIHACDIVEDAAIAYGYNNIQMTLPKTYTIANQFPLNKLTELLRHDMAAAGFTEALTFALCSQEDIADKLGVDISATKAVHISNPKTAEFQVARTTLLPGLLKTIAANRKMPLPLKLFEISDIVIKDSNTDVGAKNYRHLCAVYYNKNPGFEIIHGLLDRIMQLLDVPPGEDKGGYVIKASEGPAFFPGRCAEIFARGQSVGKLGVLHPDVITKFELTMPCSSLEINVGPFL

[6] = target: Serine/threonine-protein kinase N2 (Homo sapiens, UniProt Q16513)
Chain of Serine/threonine-protein kinase N2 (Q16513 whole entry): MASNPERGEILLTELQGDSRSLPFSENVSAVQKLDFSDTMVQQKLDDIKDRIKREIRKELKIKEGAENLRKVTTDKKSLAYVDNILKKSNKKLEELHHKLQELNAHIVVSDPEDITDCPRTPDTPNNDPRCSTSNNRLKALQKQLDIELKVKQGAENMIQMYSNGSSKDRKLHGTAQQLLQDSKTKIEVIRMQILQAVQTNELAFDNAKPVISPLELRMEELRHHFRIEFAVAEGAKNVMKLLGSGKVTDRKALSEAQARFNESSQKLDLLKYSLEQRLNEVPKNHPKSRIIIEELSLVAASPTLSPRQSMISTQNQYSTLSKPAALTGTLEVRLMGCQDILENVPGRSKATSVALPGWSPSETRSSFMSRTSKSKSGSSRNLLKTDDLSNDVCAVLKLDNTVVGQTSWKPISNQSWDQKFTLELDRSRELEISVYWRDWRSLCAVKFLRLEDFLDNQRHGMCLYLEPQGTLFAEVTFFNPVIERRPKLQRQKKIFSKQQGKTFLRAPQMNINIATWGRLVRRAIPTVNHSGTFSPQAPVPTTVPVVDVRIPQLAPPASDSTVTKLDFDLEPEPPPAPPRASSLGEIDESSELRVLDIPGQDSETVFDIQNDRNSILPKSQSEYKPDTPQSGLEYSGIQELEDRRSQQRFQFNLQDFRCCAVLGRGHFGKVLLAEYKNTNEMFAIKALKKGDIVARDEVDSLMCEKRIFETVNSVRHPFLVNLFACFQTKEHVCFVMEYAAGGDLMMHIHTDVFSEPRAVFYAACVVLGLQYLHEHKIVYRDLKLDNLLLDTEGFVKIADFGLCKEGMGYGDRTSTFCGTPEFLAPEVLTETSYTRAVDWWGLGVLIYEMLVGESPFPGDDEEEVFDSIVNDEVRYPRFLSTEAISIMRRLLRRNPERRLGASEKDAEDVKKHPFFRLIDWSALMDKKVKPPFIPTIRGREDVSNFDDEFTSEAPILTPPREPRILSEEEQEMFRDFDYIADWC

[7] = target: GTP-binding nuclear protein Ran (Homo sapiens, UniProt P62826)
[8] = target: Mitogen-activated protein kinase kinase kinase kinase 5 (Homo sapiens, UniProt Q9Y4K4)
Chain of Mitogen-activated protein kinase kinase kinase kinase 5 (Q9Y4K4 whole entry): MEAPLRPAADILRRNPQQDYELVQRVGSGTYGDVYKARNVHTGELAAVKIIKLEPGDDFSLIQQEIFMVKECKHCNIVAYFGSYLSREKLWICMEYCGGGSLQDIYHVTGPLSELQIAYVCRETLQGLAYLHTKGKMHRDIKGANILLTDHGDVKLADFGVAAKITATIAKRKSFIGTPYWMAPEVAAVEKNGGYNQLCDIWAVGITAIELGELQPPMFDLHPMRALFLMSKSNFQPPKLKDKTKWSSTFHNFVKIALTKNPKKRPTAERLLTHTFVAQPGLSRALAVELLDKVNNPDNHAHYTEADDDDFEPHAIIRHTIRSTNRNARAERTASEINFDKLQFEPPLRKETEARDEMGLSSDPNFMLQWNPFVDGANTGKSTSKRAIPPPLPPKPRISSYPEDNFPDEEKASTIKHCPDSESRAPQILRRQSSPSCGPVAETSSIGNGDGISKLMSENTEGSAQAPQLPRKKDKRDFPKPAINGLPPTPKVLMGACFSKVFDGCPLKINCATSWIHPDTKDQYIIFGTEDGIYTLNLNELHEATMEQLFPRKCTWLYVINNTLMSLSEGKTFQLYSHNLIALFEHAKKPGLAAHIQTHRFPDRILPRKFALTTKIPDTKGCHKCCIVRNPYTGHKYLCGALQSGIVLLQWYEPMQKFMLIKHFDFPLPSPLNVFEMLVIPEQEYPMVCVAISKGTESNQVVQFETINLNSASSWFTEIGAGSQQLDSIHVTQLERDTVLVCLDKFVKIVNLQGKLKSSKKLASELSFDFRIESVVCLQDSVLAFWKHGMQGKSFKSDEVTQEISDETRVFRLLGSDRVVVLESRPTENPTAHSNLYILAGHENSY

[9] = target: T3, Signal recognition particle receptor subunit alpha (Homo sapiens, UniProt P08240)
T3 sequence (P08240 whole entry): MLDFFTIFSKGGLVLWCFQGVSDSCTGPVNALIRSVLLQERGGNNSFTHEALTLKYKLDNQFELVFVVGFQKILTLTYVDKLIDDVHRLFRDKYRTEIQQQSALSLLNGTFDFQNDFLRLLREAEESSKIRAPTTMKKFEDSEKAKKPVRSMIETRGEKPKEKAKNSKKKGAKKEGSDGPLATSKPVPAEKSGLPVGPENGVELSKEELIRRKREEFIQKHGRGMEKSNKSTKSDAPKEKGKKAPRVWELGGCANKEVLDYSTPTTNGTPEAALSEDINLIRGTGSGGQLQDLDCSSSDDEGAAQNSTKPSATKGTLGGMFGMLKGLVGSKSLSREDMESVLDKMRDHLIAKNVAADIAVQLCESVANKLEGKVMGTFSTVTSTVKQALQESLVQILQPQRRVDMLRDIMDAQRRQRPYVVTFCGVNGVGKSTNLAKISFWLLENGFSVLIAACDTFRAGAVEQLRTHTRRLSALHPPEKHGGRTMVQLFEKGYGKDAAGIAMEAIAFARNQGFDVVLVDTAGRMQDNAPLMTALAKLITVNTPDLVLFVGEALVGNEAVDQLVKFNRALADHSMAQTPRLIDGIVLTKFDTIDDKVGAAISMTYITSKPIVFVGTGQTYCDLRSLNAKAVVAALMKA

Chain of Tyrosine-protein kinase HCK (P08631 whole entry): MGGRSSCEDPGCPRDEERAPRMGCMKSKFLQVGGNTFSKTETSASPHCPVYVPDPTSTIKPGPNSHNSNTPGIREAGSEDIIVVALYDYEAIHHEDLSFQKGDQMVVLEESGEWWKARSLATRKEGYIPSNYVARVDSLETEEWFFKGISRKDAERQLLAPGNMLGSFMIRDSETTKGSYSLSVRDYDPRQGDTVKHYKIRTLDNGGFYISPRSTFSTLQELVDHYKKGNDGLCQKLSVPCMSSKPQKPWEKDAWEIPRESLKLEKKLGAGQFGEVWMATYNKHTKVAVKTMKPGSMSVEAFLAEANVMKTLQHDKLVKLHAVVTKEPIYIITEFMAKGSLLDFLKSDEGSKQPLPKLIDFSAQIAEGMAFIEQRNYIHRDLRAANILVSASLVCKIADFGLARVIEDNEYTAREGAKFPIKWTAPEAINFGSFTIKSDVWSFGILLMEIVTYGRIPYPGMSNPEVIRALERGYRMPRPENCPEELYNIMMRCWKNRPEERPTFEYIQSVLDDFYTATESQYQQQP

| Structure (SMILES) | Kd [1] | Kd [2] | Kd [3] | Kd [4] | Kd (Ephrin type-B receptor 4) | Kd [5] | Kd [6] | Kd [7] | Kd [8] | Kd [9] |
| --- | --- | --- | --- | --- | --- | --- | --- | --- | --- | --- |
| NC1(c2ccc(-c3nc4ccn5c(=O)[nH]nc5c4cc3-c3ccccc3)cc2)CCC1 [MK-2206] | > 30 µM (inactive) | > 30 µM (inactive) | > 30 µM (inactive) | > 30 µM (inactive) | > 30 µM (inactive) | > 30 µM (inactive) | > 30 µM (inactive) | > 30 µM (inactive) | > 30 µM (inactive) | > 30 µM (inactive) |
| CN(C[C@@H]1COCCO1)S(=O)(=O)Nc1ccc2ccc3ncc(-c4cnn(C)c4)cc3c(=O)c2c1 [MK-2461] | > 30 µM (inactive) | > 30 µM (inactive) | > 30 µM (inactive) | > 30 µM (inactive) | > 30 µM (inactive) | > 30 µM (inactive) | > 30 µM (inactive) | > 30 µM (inactive) | > 30 µM (inactive) | > 30 µM (inactive) |
| Cn1cc(-c2cnc3ccc4ccc(CS(=O)(=O)NCc5ccccn5)cc4c(=O)c3c2)cn1 [MK-8033] | > 30 µM (inactive) | > 30 µM (inactive) | > 30 µM (inactive) | > 30 µM (inactive) | > 30 µM (inactive) | > 30 µM (inactive) | > 30 µM (inactive) | > 30 µM (inactive) | > 30 µM (inactive) | > 30 µM (inactive) |
| FC(F)(F)c1ccc(/C=C/c2nc(COc3ccc(CCCCn4ccnn4)cc3)co2)cc1 [MUBRITINIB] | > 30 µM (inactive) | > 30 µM (inactive) | > 30 µM (inactive) | > 30 µM (inactive) | > 30 µM (inactive) | > 30 µM (inactive) | > 30 µM (inactive) | > 30 µM (inactive) | > 30 µM (inactive) | > 30 µM (inactive) |
| COc1ncc(-c2ccc3nccc(-c4ccnnc4)c3c2)cc1NS(=O)(=O)c1ccc(F)cc1F [OMIPALISIB] | > 30 µM (inactive) | > 30 µM (inactive) | > 30 µM (inactive) | > 30 µM (inactive) | > 30 µM (inactive) | > 30 µM (inactive) | > 30 µM (inactive) | > 30 µM (inactive) | > 30 µM (inactive) | > 30 µM (inactive) |
| CCCCCCCCCCCCCCCCCCOP(=O)([O-])OC1CC[N+](C)(C)CC1 [PERIFOSINE] | > 30 µM (inactive) | > 30 µM (inactive) | > 30 µM (inactive) | > 30 µM (inactive) | > 30 µM (inactive) | > 30 µM (inactive) | > 30 µM (inactive) | > 30 µM (inactive) | > 30 µM (inactive) | > 30 µM (inactive) |
| Cc1nc(Nc2n[nH]c3c2CN(C(=O)N[C@H](CN(C)C)c2ccccc2)C3(C)C)c2sccc2n1 [PF-03758309] | 0.935 µM (active) | > 30 µM (inactive) | > 30 µM (inactive) | > 30 µM (inactive) | > 30 µM (inactive) | > 30 µM (inactive) | > 30 µM (inactive) | > 30 µM (inactive) | > 30 µM (inactive) | > 30 µM (inactive) |
| Cc1cnc(NC(=O)Nc2cc(Br)c(C)cc2OC[C@@H]2CNCCO2)cn1 [RABUSERTIB] | > 30 µM (inactive) | > 30 µM (inactive) | > 30 µM (inactive) | > 30 µM (inactive) | > 30 µM (inactive) | > 30 µM (inactive) | > 30 µM (inactive) | > 30 µM (inactive) | > 30 µM (inactive) | > 30 µM (inactive) |
| CO[C@H]1C[C@@H]2CC[C@@H](C)[C@@](O)(O2)C(=O)C(=O)N2CCCC[C@H]2C(=O)O[C@H]([C@H](C)C[C@@H]2CC[C@@H](OP(C)(C)=O)[C@H](OC)C2)CC(=O)[C@H](C)/C=C(\C)[C@@H](O)[C@@H](OC)C(=O)[C@H](C)C[C@H](C)/C=C/C=C/C=C/1C [RIDAFOROLIMUS] | > 30 µM (inactive) | > 30 µM (inactive) | > 30 µM (inactive) | > 30 µM (inactive) | > 30 µM (inactive) | > 30 µM (inactive) | > 30 µM (inactive) | > 30 µM (inactive) | > 30 µM (inactive) | > 30 µM (inactive) |
| O=c1[nH]ccc2cc(OC3CCNCC3)ccc12 [SAR-407899 FREE BASE] | 0.013 µM | > 30 µM (inactive) | > 30 µM (inactive) | > 30 µM (inactive) | > 30 µM (inactive) | > 30 µM (inactive) | 0.008 µM (active) | > 30 µM (inactive) | > 30 µM (inactive) | > 30 µM (inactive) |
| CN1CCN(CCOc2cc(OC3CCOCC3)c3c(Nc4c(Cl)ccc5c4OCO5)ncnc3c2)CC1 [SARACATINIB] | > 30 µM (inactive) | 0.1 µM (active) | 11.7 µM (active) | > 30 µM (inactive) | 3.88 µM (active) | > 30 µM (inactive) | > 30 µM (inactive) | > 30 µM (inactive) | 27.1 µM | > 30 µM (inactive) |
| Cn1cc(-c2cnn3c(N)c(Br)c([C@@H]4CCCNC4)nc23)cn1 [SCH-900776] | > 30 µM (inactive) | > 30 µM (inactive) | 4.39 µM (active) | > 30 µM (inactive) | > 30 µM (inactive) | > 30 µM (inactive) | > 30 µM (inactive) | > 30 µM (inactive) | > 30 µM (inactive) | > 30 µM (inactive) |
| CO[C@H]1C[C@@H]2CC[C@@H](C)[C@@](O)(O2)C(=O)C(=O)N2CCCC[C@H]2C(=O)O[C@H]([C@H](C)C[C@@H]2CC[C@@H](O)[C@H](OC)C2)CC(=O)[C@H](C)/C=C(\C)[C@@H](O)[C@@H](OC)C(=O)[C@H](C)C[C@H](C)/C=C/C=C/C=C/1C [SIROLIMUS] | > 30 µM (inactive) | > 30 µM (inactive) | > 30 µM (inactive) | > 30 µM (inactive) | > 30 µM (inactive) | > 30 µM (inactive) | > 30 µM (inactive) | > 30 µM (inactive) | > 30 µM (inactive) | > 30 µM (inactive) |
| CCS(=O)(=O)c1cccc(-c2cc(C(=O)NC3CCN(C)CC3)c(C)c3[nH]c4ncc(C)cc4c23)c1 [TAK-901] | > 30 µM (inactive) | 0.143 µM (active) | 0.949 µM (active) | 4.66 µM (active) | 0.656 µM (active) | > 30 µM (inactive) | > 30 µM (inactive) | > 30 µM (inactive) | 5.36 µM (active) | > 30 µM (inactive) |
